Experimental data taken from US6677368B2, “4-aryl substituted indolinones” (Sugen, Inc., priority 2000, dated 2004).

Assays:
SRC = biological target: T1, SRC (Homo sapiens, UniProt P12931); assay: Src transphosphorylation assay; type: biochemical; details: recombinant human Src, poly(Glu-Tyr) substrate
T1 construct: purchased UBI 14-117
Method: Src Transphosphorylation Assay
This assay is used to screen for inhibitors of the tyrosine kinase Src.
1. Coating buffer: PBS containing sodium azide (0.2 mg/ml).
3. Wash buffer: PBS containing 0.05% v/v Tween 20 (PBS-TWEEN)
5. ATP (40 [M)+MgCl2 (80 mM) in distilled water.
6. MgCl2 (80 mM) in distilled water (for no ATP blanks).
7. Test compounds, 10 mM in DMSO.
8. Assay Buffer: 100 mM HEPES, pH 7.4, containing 2 mM DTT, 0.2 mM sodium orthovanadate and 0.2 mgs/ml BSA.
9. Partially purified recombinant human Src (UBI (14-117)
10. Anti-phosphotyrosine (SUGEN rabbit polyclonal anti-PY).
11. HRP-linked goat anti-rabbit Ig (Biosource International #6430)
12. HRP substrate ABTS or Pierce Peroxidase substrate.
13. Corning ELISA plates.
1. Coat plates with 100 μl of 20 μg/ml poly(Glu-Tyr) (Sigma Cat. No.P0275) containing 0.01% sodium azide. Hold overnight at 4° C.
2. Block with 1% BSA at 100 μl/well for one hour at room temperature.
3. Plate test compounds (10 mM in DMSO) at 2 ul/well on a Costar plate ready for dilution with dH2O and plating to reaction plates.
4. Dilute Src kinase 1:10,000 in Reaction Buffer, for 5 plates prepare 25 ml as follows: 2.5 mls 1M HEPES pH7.4 (stored sterile at 4° C.), 21.85 ml distilled water, 0.1 ml 5% BSA, 0.5 ml 10 mM sodium orthovanadate (stored sterile at 4° C.), 50 μl 1.0M DTT (stored frozen at […]), and 2.5 μl Src Kinase (stored frozen at −80° C.).
5. Add 48 μl of distilled water to the 2 ∥l of each compound in the dilution plate then add 25 μl/well of this to the reaction plate.
6. Add 50 μl of […] to each reaction buffer well and then 25 μl ATP-MgCl2/well (MgCl2 only to no ATP blanks). Incubate at room temperature for 15 minutes on plate shaker. Stop reaction by adding 25 μl of 0.5M EDTA to each well.
7. Wash 4× with PBS-TWEEN.
8. […] Incubate with continuous shaking at room temperature for one hour.
9. Wash plates 4× with PBS-TWEEN.
10. Add 100 μl HPP-linked Ig (1:5,000) in PBS-TWEEN containing 0.5% BSA, 0.025% Non-fat milk powder, 100 μM sodium orthovanadate. Incubate with shaking at room temperature for one hour.
11. Wash plates 4× with PBS-TWEEN and then once with PBS.
12. Develop plate using ABTS or other peroxidase substrate.

MET = biological target: T2, MET (Homo sapiens, UniProt P08581); assay: MET transphosphorylation assay; type: biochemical; details: GST fusion protein containing the Met kinase domain, poly(glu-tyr) substrate
T2 construct: Purified GST fusion protein containing the Met kinase domain, SUGEN, Inc
T2 sequence (P08581 1078-1345 limits assumed): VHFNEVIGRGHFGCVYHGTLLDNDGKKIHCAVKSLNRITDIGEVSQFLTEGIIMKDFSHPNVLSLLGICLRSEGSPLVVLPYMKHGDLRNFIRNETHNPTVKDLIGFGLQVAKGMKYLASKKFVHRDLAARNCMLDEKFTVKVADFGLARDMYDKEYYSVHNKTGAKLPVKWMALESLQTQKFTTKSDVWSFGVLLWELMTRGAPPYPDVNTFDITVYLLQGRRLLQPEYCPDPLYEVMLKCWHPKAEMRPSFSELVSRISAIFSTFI
Method: MET TRANSPHOSPHORYLATION ASSAY
This assay is used to measure phosphotyrosine levels on a poly(glutamic acid:tyrosine, 4:1) substrate as a means for identifying agonists/antagonists of met transphosphorylation of the substrate.
1. Corning 96-well ELISA plates, Corning Catalog #25805-96.
2. Poly(glu-tyr), 4:1, Sigma, Cat. No; P 0275.
5. Blocking Buffer: Dissolve 25 g Bovine Serum Albumin, Sigma Cat. No A-7888, in 500 ml PBS, filter through a […] filter.
6. Purified GST fusion protein containing the Met kinase domain, SUGEN, Inc.
8. 10% aqueous (MilliQue H2O) DMSO.
9. 10 mM aqueous (dH2O) Adenosine-5′-triphosphate, Sigma Cat. No. A-5394.
10. 2×Kinase Dilution Buffer: for 100 ml, mix 10 mL 1M HEPES at pH 7.5 with 0.4 mL 5% BSA/PBS, 0.2 mL 0.1 M sodium orthovanadate and 1 mL 5M sodium chloride in 88.4 mL dH2O.
11. 4×ATP Reaction Mixture: for 10 mL, mix 0.4 mL 1 M manganese chloride and 0.02 mL 0.1 M ATP in 9.56 mL dH2O.
12. 4×Negative Controls Mixture: for 10 mL, mix 0.4 mL 1 M manganese chloride in 9.6 mL dH2O.
13. NUNC 96-well V bottom polypropylene plates, Applied Scientific Catalog #S-72092
15. Antibody Dilution Buffer: for 100 mL, mix 10 mL 5% BSA/PBS, 0.5 mL 5% Carnation® Instant Milk in PBS and 0.1 mL 0.1 M sodium orthovanadate in 88.4 mL TBST.
16. Rabbit polyclonal antophosphotyrosine antibody, SUGEN, Inc.
17. Goat anti-rabbit horseradish peroxidase conjugated antibody, Biosource, Inc.
18. ABTS Solution: for 1 L, mix 19.21 g citric acid, 35.49 g Na2HPO4 and 500 mg ABTS with sufficient dH2O to make 1 L.
19. ABTS/H2O2: mix 15 mL ABST solution with 2μL H2O2 five minutes before use.
1. Coat ELISA plates with 2 μg Poly(Glu-Tyr) in 100 μL PBS, hold overnight at 4° C.
2. Block plate with 150 μL of 5% BSA/PBS for 60 min.
3. Wash plate twice with PBS then once with 50 mM Hepes buffer pH 7.4.
4. Add 50 μl of the diluted kinase to all wells. (Purified kinase is diluted with Kinase Dilution Buffer. Final concentration should be 10 ng/well.)
5. Add 25 μL of the test compound (in 4% DMSO) or DMSO alone (4% in dH2O) for controls to plate.
6. Incubate the kinase/compound mixture for 15 minutes.
7. Add 25 μL of 40 mM MnCl2 to the negative control wells.
8. Add 25 μL ATP/MnCl2 mixture to the all other wells (except the negative controls). Incubate for 5 min.
9. Add 25 μL 500 mM EDTA to stop reaction.
10. Wash plate 3× with TBST.
11. Add 100 μL rabbit polyclonal anti-Ptyr diluted 1:10,000 in Antibody Dilution Buffer to each well. Incubate, with shaking, at room temperature for one hour.
12. Wash plate 3× with TBST.
13. Dilute Biosource HRP conjugated anti-rabbit antibody 1:6,000 in Antibody Dilution buffer. Add 100 μL per well and incubate at room temperature, with shaking, for one hour.
14. Wash plate 1× with PBS.
15. Add 100 μl of ABTS/H2O2 solution to each well.
16. If necessary, stop the development reaction with the addition of 100 μl of 0.2M HCl per well.
17. Read plate on Dynatech MR7000 ELISA reader with the test filter at 410 nM and the reference filter at 630 nM.

T1 sequence (P12931 whole entry): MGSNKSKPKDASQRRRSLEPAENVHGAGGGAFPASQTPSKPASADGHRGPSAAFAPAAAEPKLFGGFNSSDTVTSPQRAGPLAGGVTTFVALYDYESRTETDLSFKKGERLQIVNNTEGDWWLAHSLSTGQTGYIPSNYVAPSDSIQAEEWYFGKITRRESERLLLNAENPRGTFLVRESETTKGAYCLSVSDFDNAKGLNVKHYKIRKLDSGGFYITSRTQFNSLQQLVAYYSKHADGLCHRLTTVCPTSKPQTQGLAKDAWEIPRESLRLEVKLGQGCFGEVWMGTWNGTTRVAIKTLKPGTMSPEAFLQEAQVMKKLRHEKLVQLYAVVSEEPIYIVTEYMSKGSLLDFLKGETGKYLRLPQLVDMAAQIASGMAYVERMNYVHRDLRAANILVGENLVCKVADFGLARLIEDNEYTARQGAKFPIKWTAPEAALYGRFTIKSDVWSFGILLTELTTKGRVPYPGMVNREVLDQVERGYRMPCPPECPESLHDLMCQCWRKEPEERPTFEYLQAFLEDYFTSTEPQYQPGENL

| IC50 (SRC) [µM] | IC50 (MET) [µM] | Compound |
| --- | --- | --- |
| 1.25 | 0.11 | COc1ccc(-c2cccc3c2/C(=C/c2[nH]c(C)c(C(=O)NCCN4CCCC4)c2C)C(=O)N3)cc1 [Example 38, 5-[4-(4-Methoxy-phenyl)-2-oxo-1,2-dihydro-indol-3-ylidenemethyl]-2,4-dimethyl-1H-pyrrole-3-carboxylic Acid (2-Pyrrolidin-1-yl-ethyl)-amide] |
| 6.57 | 0.27 | COc1ccc(-c2cccc3c2/C(=C/c2[nH]c(C)c(C(=O)N4C[C@@H](C)N[C@@H](C)C4)c2C)C(=O)N3)cc1 [Example 40, 3-[4-((cis)-3,5-Dimethyl-piperazine-1-carbonyl)-3,5-dimethyl-1H-pyrrol-2-ylmethylene]-4-(4-methoxy-phenyl)-1,3-dihydro-indol-2-one] |
| 5.42 | 0.32 | COc1ccc(-c2cccc3c2/C(=C/c2[nH]c(C)cc2C(=O)NCCN2CCCC2)C(=O)N3)cc1 [Example 41, 2-[4-(4-Methoxy-phenyl)-2-oxo-1,2-dihydro-indol-3-ylidenemethyl]-5-methyl-1H-pyrrole-3-carboxylic Acid (2-Pyrrolidin-1-yl-ethyl)-amide] |
| 0.66 | 0.12 | CCN(CC)CCNC(=O)c1c(C)[nH]c(/C=C2\C(=O)Nc3cccc(-c4cccc(OC)c4)c32)c1C [Example 46, 5-[4-(3-Methoxy-phenyl)-2-oxo-1,2-dihydro-indol-3-ylidenemethyl]-2,4-dimethyl-1H-pyrrole-3-carboxylic Acid (2-Diethylamino-ethyl)-amide] |
| 3.8 | 1.06 | COc1cccc(-c2cccc3c2/C(=C/c2[nH]c(C)c(C(=O)NCCn4ccnn4)c2C)C(=O)N3)c1 [Example 48, 5-[4-(3-Methoxy-phenyl)-2-oxo-1,2-dihydro-indol-3-ylidenemethyl]-2,4-dimethyl-1H-pyrrole-3-carboxylic Acid (2-[1,2,3]Triazol-1-yl-ethyl)-amide] |
| 0.54 | 0.092 | COc1cccc(-c2cccc3c2/C(=C/c2[nH]c(C)c(C(=O)NCCN(C(C)C)C(C)C)c2C)C(=O)N3)c1 [Example 52, 5-[4-(3-Methoxy-phenyl)-2-oxo-1,2-dihydro-indol-3-ylidenemethyl]-2,4-dimethyl-1H-pyrrole-3-carboxylic Acid (2-Diisopropylamino-ethyl)-amide] |
| 13.5 | 0.29 | Cc1[nH]c(/C=C2\C(=O)Nc3cccc(-c4ccc(Br)cc4)c32)c(C)c1C(=O)N1CCN(C)CC1 [Example 53] |
| 4.74 | 0.42 | Cc1[nH]c(/C=C2\C(=O)Nc3cccc(-c4ccc(Br)cc4)c32)c(C)c1C(=O)N1C[C@@H](C)N[C@@H](C)C1 [Example 57, 4-(4-Bromo-phenyl)-3-[4-[(cis)-3,5-dimethyl-piperazine-1-carbonyl)-3,5-dimethyl-1H-pyrrol-2-ylmethylene]-1,3-dihydro-indol-2-one] |
| 4.81 | 0.073 | Cc1cc(C(=O)NCCN2CCCC2)c(/C=C2\C(=O)Nc3cccc(-c4ccc(Br)cc4)c32)[nH]1 [Example 58, 2-[4-(4-Bromo-phenyl)-2-oxo-1,2-dihydro-indol-3-ylidenemethyl]-5-methyl-1H-pyrrole-3-carboxylic Acid (2-Pyrrolidin-1-yl-ethyl)-amide] |
| 2.01 | 0.25 | Cc1[nH]c(/C=C2\C(=O)Nc3cccc(-c4ccc(Br)cc4)c32)c(C)c1C(=O)NCCN(C(C)C)C(C)C [Example 60, 5-[4-(4-Bromo-phenyl)-2-oxo-1,2-dihydro-indol-3-ylidenemethyl]-2,4-dimethyl-1H-pyrrole-3-carboxylic Acid (2-Diisopropylamino-ethyl)-amide] |
| 1.72 | 0.11 | CCN(CC)CCNC(=O)c1c[nH]c(/C=C2\C(=O)Nc3cccc(-c4ccc(Br)cc4)c32)c1C [Example 61, 5-[4-(4-Bromo-phenyl)-2-oxo-1,2-dihydro-indol-3-ylidenemethyl]-4-methyl-1H-pyrrole-3-carboxylic Acid (2-Diethylamino-ethyl)-amide] |
| 1.14 | 0.043 | CCN(CC)CCNC(=O)c1c(C)[nH]c(/C=C2\C(=O)Nc3cccc(-c4cccc(Br)c4)c32)c1C [Example 63, 5-[4-(3-Bromo-phenyl)-2-oxo-1,2-dihydro-indol-3-ylidenemethyl]-2,4-dimethyl-1H-pyrrole-3-carboxylic Acid (2-Diethylamino-ethyl)-amide] |
| > 20 | 0.08 | Cc1[nH]c(/C=C2\C(=O)Nc3cccc(-c4ccccc4F)c32)c(C)c1C(=O)N1CCN(C)CC1 [Example 93, 3-[3,5-Dimethyl-4-(4-methyl-piperazine-1-carbonyl)-1H-pyrrol-2-ylmethylene]-4-(2-fluoro-phenyl)-1,3-dihydro-indol-2-one] |
| > 20 | 0.18 | Cc1cc(C(=O)NCCn2ccnn2)c(/C=C2\C(=O)Nc3cccc(-c4ccccc4F)c32)[nH]1 [Example 99, 2-[4-(2-Fluoro-phenyl)-2-oxo-1,2-dihydro-indol-3-ylidenemethyl]-5-methyl-1H-pyrrole-3-carboxylic Acid (2-[1,2,3]Triazol-1-yl-ethyl)-amide] |
| 7.09 | 0.58 | Cc1[nH]c(/C=C2\C(=O)Nc3cccc(-c4cccc(C(F)(F)F)c4)c32)c(C)c1C(=O)N1CCN(C)CC1 [Example 104, 3-[3,5-Dimethyl-4-(4-methyl-piperazine-1-carbonyl)-H-pyrrol-2-ylmethylene]-4-(3-trifluoromethyl-phenyl)-1,3-dihydro-indol-2-one] |
